The values below come from patent publication US20210269440A1 (BETTA PHARMACEUTICALS CO., LTD, priority 2018, published 2021).

Some results are limits rather than exact numbers.

In the assay the target is T1, PD-1/PD-L1 protein/protein interaction (Homo sapiens, UniProt Q9NZQ7).
T1 construct: Recombinant human PD-L1 protein (19-238) with a His-tag at the C-terminus; purchased AcroBiosystems PD1-H5229 (PD-L1); PD1-H5257 (PD-1)
T1 sequence (Q9NZQ7 19-238): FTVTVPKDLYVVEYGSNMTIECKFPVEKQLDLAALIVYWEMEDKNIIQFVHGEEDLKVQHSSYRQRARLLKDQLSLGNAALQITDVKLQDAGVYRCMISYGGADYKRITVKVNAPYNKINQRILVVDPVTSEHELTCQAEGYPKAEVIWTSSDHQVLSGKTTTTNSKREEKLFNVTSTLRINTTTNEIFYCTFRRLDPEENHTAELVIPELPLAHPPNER
Put plainly: PD-1/PD-L1 homogenous time-resolved fluorescence (HTRF) binding assay. Here is the method:
Resolved Fluorescence (HTRF) Binding Assay
The assays were conducted in a standard black 384-well polystyrene plate with a final volume of […]. Inhibitors were first serially diluted in DMSO and then added to the plate wells before the addition of other reaction components. The final concentration of DMSO in the assay was 1%. The assays were carried out at 25° C. in the PBS buffer (pH 7.4) with 0.05% Tween-20 and 0.1% BSA. […] Plates were centrifuged and proteins were preincubated with inhibitors for 40 min. The incubation was followed by the addition of 10 μL of HTRF detection buffer supplemented with Europium cryptate-labeled anti-human IgG (PerkinElmer-AD0212) specific for Fc and anti-His antibody conjugated to SureLight®—Allophycocyanin (APC, PerkinElmer-AD0059H). After centrifugation, the plate was incubated at 25° C. for 60 min. […] Final concentrations in the assay were […] PD1, 10 nM PD-L1, 1 nM europium anti-human IgG and 20 nM anti-His-Allophycocyanin. IC50 determination was performed by fitting the curve of percent control activity versus the log of the inhibitor concentration using the GraphPad Prism 5.0 software.
Background: In TR-FRET formats the signal depends on donor and acceptor labels being close together.
The IC50 is the midpoint of a concentration-inhibition curve. Read a high IC50 as weaker potency in that assay. Compound `Cc1c(Nc2nccc3cc(CN4CCCCC4C(=O)O)cnc23)cccc1-c1cccc(OCCCN(C)Cc2ccccc2)c1C` (stereo not shown) [Compound 22, 1-((8-((3′-(3-(benzyl(methyl)amino)propoxy)-2,2′-dimethyl-[1,1′-biphenyl]-3-yl)amino)-1,7-naphthyridin-3-yl)methyl)piperidine-2-carboxylic acid] returned an IC50 of 2 to 10 nM.

The compound `CCNCCCOc1cccc(-c2cccc(Nc3nccc4cc(CN5CCCCC5C(=O)O)cnc34)c2C)c1C` (stereo not shown) [Compound 23, 1-((8-((3′-(3-(ethylamino)propoxy)-2,2′-dimethyl-[1,1′-biphenyl]-3-yl)amino)-1,7-naphthyridin-3-yl)methyl)piperidine-2-carboxylic acid] came in with a 50% inhibitory concentration (IC50) below 2 nM.

Compound `CC(=O)NCCCOc1cccc(-c2cccc(Nc3nccc4cc(CN5CCCCC5C(=O)O)cnc34)c2C)c1C` (stereo not shown) [Compound 24, 1-((8-((3′-(3-acetamidopropoxy)-2,2′-dimethyl-[1,1′-biphenyl]-3-yl)amino)-1,7-naphthyridin-3-yl)methyl)piperidine-2-carboxylic acid] displayed a half-maximal inhibitory concentration (IC50) above 150 nM.

Compound `Cc1c(Nc2nccc3cc(CN4CCCCC4C(=O)O)cnc23)cccc1-c1cccc(OCCCNC(N)=O)c1C` (stereo not shown) [Compound 25, 1-((8-((2,2′-dimethyl-3′-(3-ureidopropoxy)-[1,1′-biphenyl]-3-yl)amino)-1,7-naphthyridin-3-yl)methyl)piperidine-2-carboxylic acid] gave a half-inhibitory concentration (IC50) above 150 nM.

On to `Cc1c(Nc2nccc3cc(CN4CCCCC4C(=O)O)cnc23)cccc1-c1cccc(OCCCNC(=N)N)c1C` (stereo not shown) [Compound 26, 1-((8-((3′-(3-guanidinopropoxy)-2,2′-dimethyl-[1,1′-biphenyl]-3-yl)amino)-1,7-naphthyridin-3-yl)methyl)piperidine-2-carboxylic acid], for which the IC50 was above 150 nM.

As for `Cc1c(Nc2nccc3cc(CN4CCCCC4C(=O)O)cnc23)cccc1-c1cccc(OCCCNS(C)(=O)=O)c1C` (stereo not shown) [Compound 27, 1-((8-((2,2′-dimethyl-3′-(3-(methylsulfonamido)propoxy)-[1,1′-biphenyl]-3-yl)amino)-1,7-naphthyridin-3-yl)methyl)piperidine-2-carboxylic acid], the IC50 was above 150 nM.

For the compound `Cc1c(Nc2nccc3cc(CN4CCCCC4C(=O)O)cnc23)cccc1-c1cccc(OCCCNCC(=O)O)c1C` (stereo not shown) [Compound 28, 1-((8-((3′-(3-((carboxymethyl)amino)propoxy)-2,2′-dimethyl-[1,1′-biphenyl]-3-yl)amino)-1,7-naphthyridin-3-yl)methyl)piperidine-2-carboxylic acid], the half-maximal inhibitory concentration (IC50) is below 2 nM.

Consider `Cc1c(Nc2nccc3cc(CN4CCCCC4C(=O)O)cnc23)cccc1-c1cccc(OCCCN2CCCC2C(=O)O)c1C` (stereo not shown) [Compound 29, 1-((8-((3′-(3-(2-carboxypyrrolidin-1-yl)propoxy)-2,2′-dimethyl-[1,1′-biphenyl]-3-yl)amino)-1,7-naphthyridin-3-yl)methyl)piperidine-2-carboxylic acid], for which the IC50 was 2 to 10 nM.

As for `Cc1c(Nc2nccc3cc(CN4CCCCC4C(=O)O)cnc23)cccc1-c1cccc(OCCCN2CCC(C(=O)O)CC2)c1C` (stereo not shown) [Compound 30, 1-((8-((3′-(3-(4-carboxypiperidin-1-yl)propoxy)-2,2′-dimethyl-[1,1′-biphenyl]-3-yl)amino)-1,7-naphthyridin-3-yl)methyl)piperidine-2-carboxylic acid], the half-maximal inhibitory concentration (IC50) was in the range of 2 to 10 nM.

For the compound `Cc1c(Nc2nccc3cc(CN4CCCCC4C(=O)O)cnc23)cccc1-c1cccc(OCCN2CCOCC2)c1C` (stereo not shown) [Compound 31, 1-((8-((2,2′-dimethyl-3′-(2-morpholinoethoxy)-[1,1′-biphenyl]-3-yl)amino)-1,7-naphthyridin-3-yl)methyl)piperidine-2-carboxylic acid], the IC50 was 10 to 150 nM.

In turn, `Cc1c(Nc2nccc3cc(CN4CCCCC4C(=O)O)cnc23)cccc1-c1ccc2ccc(OCCN3CCOCC3)cc2c1` (stereo not shown) [Compound 32, 1-((8-((2-methyl-3-(7-(2-morpholinoethoxy)naphthalen-2-yl)phenyl)amino)-1,7-naphthyridin-3-yl)methyl)piperidine-2-carboxylic acid] came in with an IC50 above 150 nM.

As to `Cc1c(Nc2nccc3cc(CN4CCCCC4C(=O)O)cnc23)cccc1-c1cccc(OCCCNC2COC2)c1` (stereo not shown) [Compound 33, 1-((8-((2-methyl-3′-(3-(oxetan-3-ylamino)propoxy)-[1,1′-biphenyl]-3-yl)amino)-1,7-naphthyridin-3-yl)methyl)piperidine-2-carboxylic acid], the 50% inhibitory concentration (IC50) was below 2 nM.

`Cc1c(Nc2nccc3cc(CN4CCCCC4C(=O)O)cnc23)cccc1-c1cccc2c1ccn2CCCN1CCOCC1` (stereo not shown) [Compound 34, 1-((8-((2-methyl-3-(1-(3-morpholinopropyl)-1H-indol-4-yl)phenyl)amino)-1,7-naphthyridin-3-yl)methyl)piperidine-2-carboxylic acid] registered a half-inhibitory concentration (IC50) above 150 nM.

In the case of `Cc1c(Nc2nccc3cc(CN4CCCCC4C(=O)O)cnc23)cccc1-c1ccc2cc(CCN3CCOCC3)[nH]c2c1` (stereo not shown) [Compound 35, 1-((8-((2-methyl-3-(2-(2-morpholinoethyl)-1H-indol-6-yl)phenyl)amino)-1,7-naphthyridin-3-yl)methyl)piperidine-2-carboxylic acid], the IC50 is above 150 nM.

In the case of `Cc1c(Nc2nccc3cc(CN4CCCCC4C(=O)O)cnc23)cccc1-c1cccc(OCCCN2CCOCC2)c1` (stereo not shown) [Compound 36, 1-((8-((2-methyl-3′-(3-morpholinopropoxy)-[1,1′-biphenyl]-3-yl)amino)-1,7-naphthyridin-3-yl)methyl)piperidine-2-carboxylic acid], the half-inhibitory concentration (IC50) lay in the range of 2 to 10 nM.

`Cc1c(Nc2nccc3cc(CN4CCCCC4C(=O)O)cnc23)cccc1-c1cccc(OCCCN2CCOCC2)c1F` (stereo not shown) [Compound 37, 1-((8-((2′-fluoro-2-methyl-3′-(3-morpholinopropoxy)-[1,1′-biphenyl]-3-yl)amino)-1,7-naphthyridin-3-yl)methyl)piperidine-2-carboxylic acid] showed an IC50 of 2 to 10 nM.

As to `Cc1c(Nc2nccc3cc(CN4CCCCC4C(=O)O)cnc23)cccc1-c1cccc(OCCCN2CCOCC2)c1Cl` (stereo not shown) [Compound 38, 1-((8-((2′-chloro-2-methyl-3′-(3-morpholinopropoxy)-[1,1′-biphenyl]-3-yl)amino)-1,7-naphthyridin-3-yl)methyl)piperidine-2-carboxylic acid], the IC50 lay in the range of 2 to 10 nM.

As to `Cc1c(Nc2nccc3cc(CN4CCCCC4C(=O)O)cnc23)cccc1-c1cccc(OCCCN2CCOCC2)c1C#N` (stereo not shown) [Compound 39, 1-((8-((2′-cyano-2-methyl-3′-(3-morpholinopropoxy)-[1,1′-biphenyl]-3-yl)amino)-1,7-naphthyridin-3-yl)methyl)piperidine-2-carboxylic acid], the IC50 is 2 to 10 nM.

In the case of `Cc1c(Nc2nccc3cc(CN4CCCCC4C(=O)O)cnc23)cccc1-c1ccc(F)c(OCCCN2CCOCC2)c1` (stereo not shown) [Compound 40, 1-((8-((4′-fluoro-2-methyl-3′-(3-morpholinopropoxy)-[1,1′-biphenyl]-3-yl)amino)-1,7-naphthyridin-3-yl)methyl)piperidine-2-carboxylic acid], the concentration for half-maximal inhibition (IC50) was in the range of 2 to 10 nM.

As for `Cc1ccc(-c2cccc(Nc3nccc4cc(CN5CCCCC5C(=O)O)cnc34)c2C)c(C)c1OCCCN1CCOCC1` (stereo not shown) [Compound 41, 1-((8-((2,2′,4′-trimethyl-3′-(3-morpholinopropoxy)-[1,1′-biphenyl]-3-yl)amino)-1,7-naphthyridin-3-yl)methyl)piperidine-2-carboxylic acid], the half-maximal inhibitory concentration (IC50) is above 150 nM.

As to `Cc1ccc(-c2cccc(Nc3nccc4cc(CN5CCCCC5C(=O)O)cnc34)c2C)cc1OCCCN1CCOCC1` (stereo not shown) [Compound 42, 1-((8-((2,4′-dimethyl-3′-(3-morpholinopropoxy)-[1,1′-biphenyl]-3-yl)amino)-1,7-naphthyridin-3-yl)methyl)piperidine-2-carboxylic acid], the concentration for half-maximal inhibition (IC50) is 2 to 10 nM.

`Cc1c(Nc2nccc3cc(CN4CCCCC4C(=O)O)cnc23)cccc1-c1ccc(Cl)c(OCCCN2CCOCC2)c1` (stereo not shown) [Compound 43, 1-((8-((4′-chloro-2-methyl-3′-(3-morpholinopropoxy)-[1,1′-biphenyl]-3-yl)amino)-1,7-naphthyridin-3-yl)methyl)piperidine-2-carboxylic acid] showed an IC50 of 2 to 10 nM.

`Cc1c(Nc2nccc3cc(CNCC(=O)O)cnc23)cccc1-c1ccc(Cl)c(OCCCN2CCOCC2)c1` [Compound 44, ((8-((4′-chloro-2-methyl-3′-(3-morpholinopropoxy)-[1,1′-biphenyl]-3-yl)amino)-1,7-naphthyridin-3-yl)methyl)glycine] gave an IC50 below 2 nM.

`Cc1c(Nc2nccc3cc(CNCC(=O)O)cnc23)cccc1-c1cccc(OCCCN2CCOCC2)c1Cl` [Compound 45, ((8-((2′-chloro-2-methyl-3′-(3-morpholinopropoxy)-[1,1′-biphenyl]-3-yl)amino)-1,7-naphthyridin-3-yl)methyl)glycine] gave a half-inhibitory concentration (IC50) below 2 nM.

Compound `Cc1c(Nc2nccc3cc(CNCC(=O)O)cnc23)cccc1-c1cncc(OCCCN2CCOCC2)c1C` [Compound 46, ((8-((2-methyl-3-(4-methyl-5-(3-morpholinopropoxy)pyridin-3-yl)phenyl)amino)-1,7-naphthyridin-3-yl)methyl)glycine] gave an IC50 of 10 to 150 nM.
